Data published in paper PMC10605847 (Cancers, 2023).

What was measured:
HeLa cells = assay: MTT cell viability, HeLa; conditions: Homo sapiens, 24 h, read-out: IC50 cytotoxic effect, HeLa
Description: (§1) For all experiments using cell lines, cells were cultured in a DMEM culture medium with the addition of 10% fetal bovine serum, 2 mM glutamine and 1% penicillin-streptomycin as antibiotics under standard conditions at 37 °C with 5% CO2.
(§2) Cell viability was measured using MTT analysis, as described earlier [48]. In short, 10,000 HeLa and Hek-293 cells per well were placed in sterile 96-well culture plates and cultured under the standard conditions described above for 24 h to adhere. After the time elapsed, the cells were treated with the studied compounds in a concentration range from 0.1 to 100 µM (0.1–1–3–10–30–100) and incubated for 24 h. The control samples contained an equivalent volume of solvent (DMSO < 1%). At the end of incubation, cell viability was measured by adding an MTT solution (the final concentration was 5 mg/mL, DiaM, Moscow, Russia). After 2 h of incubation at 37 °C, the nutrient medium was carefully aspirated and replaced with 200 µL of dimethyl sulfoxide to dissolve the formazane granules. The optical density of the formazane solution was determined using a multifunctional analyzer Cytation™3 (BioTek Instruments, Inc., Winooski, VT, USA) at λ = 530 nm. All experiments were carried out in three repetitions.

HDAC1 = target: T1, HDAC1 (Homo sapiens, UniProt Q13547); assay: HDAC1 fluorimetric inhibitory activity assay (Fluor de Lys kit); format: biochemical; conditions: read-out: HDAC1-Inhibitory Ability (IC50)
T1 construct: purchased Enzo Life Sciences International, Inc
Description: HDAC1-inhibitory activity was determined using the HDAC activity analysis kit by fluorescence measurement (HDAC1 Fluorimetric Drug Discovery Assay Kit A Fluoro de Lys Fluorescent Assay System, Enzo Life Sciences International, Inc., Farmingdale, New York, USA) in accordance with the manufacturer’s instructions. Fluorescence was measured at an excitation wavelength of 360 nm and emission of 460 nm. […] All experiments were carried out in three repetitions.

[1] = MTT cell viability, Hek-293; conditions: human, Hek-293 cells
Description: as §1, §2

HeLa cell line = assay: Cisplatin cytotoxicity alone and combined with hydroxamic acids, HeLa (MTT); format: cell-based, human; conditions: 5 µM of compound with cisplatin
Description: Cell viability was measured using MTT analysis, as described earlier [48]. In short, 10,000 HeLa and Hek-293 cells per well were placed in sterile 96-well culture plates and cultured under the standard conditions described above for 24 h to adhere. After the time elapsed, the cells were treated with the studied compounds in a concentration range from 0.1 to 100 µM (0.1–1–3–10–30–100) and incubated for 24 h. The control samples contained an equivalent volume of solvent (DMSO < 1%). At the end of incubation, cell viability was measured by adding an MTT solution (the final concentration was 5 mg/mL, DiaM, Moscow, Russia). After 2 h of incubation at 37 °C, the nutrient medium was carefully aspirated and replaced with 200 µL of dimethyl sulfoxide to dissolve the formazane granules. The optical density of the formazane solution was determined using a multifunctional analyzer Cytation™3 (BioTek Instruments, Inc., Winooski, VT, USA) at λ = 530 nm. […]
Then, the cells were treated with a combination of increasing doses of cytostatic agents and the test compound with a constant ratio of 1:4, and subsequently, a cell death analysis was performed. The CI values were calculated and plotted using CompuSyn.exe (Biosoft, Ferguson, MO, USA) based on the concentration and effect of each agent and their combinations according to instructions of the software. […]

PA-1 cells = assay: Glycolysis stress test (Seahorse XFe96, ECAR); format: cell-based, human; conditions: PA-1, 100 µM
Description: In order to achieve a 90–95% monolayer, approximately 40,000 PA-1 cells per well were placed in XF96 cell-culture plates and a glycolysis stress test was performed 24 h later using an XFe96 extracellular flow analyzer (Seahorse Bioscience, North Billerica, MA, USA) by measuring the rate of extracellular medium acidification (ECAR).
Briefly, after the cells were seeded, the plate was placed in an incubator and cultured for 24 h under the standard conditions described above.
After placing the tablet in the analyzer, a step-by-step measurement of the extracellular acidification rate of the medium was performed in response to the sequential addition of modulators: port A—the studied compounds at a concentration of 100 µM, port B—10 mM of glucose (Seahorse Bioscience, North Billerica, MA, USA), port C—1 µM of oligomycin (Sigma Aldrich, St. Louis, MI, USA) and port D—25 mM 2-deoxy-D-glucose (Sigma Aldrich, St. Louis, MI, USA). To ensure the stability of each measurement, three separate readings were taken.
Glycolysis was measured by estimating the difference between the maximum ECAR after glucose injection and the last measurement before glucose addition. Such a parameter of glycolytic function as glycolytic capacity was determined by analyzing the difference between the maximum ECAR after oligomycin injection and the last measurement before glucose addition. Glycolytic reserve was defined as the difference between glycolytic capacity and glycolysis.

HeLa/CDDP cells = assay: Cisplatin cytotoxicity alone and combined with hydroxamic acids, cisplatin-resistant HeLa/CDDP (MTT); format: cell-based, human; conditions: 5 µM hydroxamic acid
Description: Cell viability was measured using MTT analysis, as described earlier [48]. In short, 10,000 HeLa and Hek-293 cells per well were placed in sterile 96-well culture plates and cultured under the standard conditions described above for 24 h to adhere. After the time elapsed, the cells were treated with the studied compounds in a concentration range from 0.1 to 100 µM (0.1–1–3–10–30–100) and incubated for 24 h. The control samples contained an equivalent volume of solvent (DMSO < 1%). At the end of incubation, cell viability was measured by adding an MTT solution (the final concentration was 5 mg/mL, DiaM, Moscow, Russia). […] The optical density of the formazane solution was determined using a multifunctional analyzer Cytation™3 (BioTek Instruments, Inc., Winooski, VT, USA) at λ = 530 nm. All experiments were carried out in three repetitions.

in vitro = conditions: human
Description: as §1, §2

T1 sequence (Q13547 whole entry): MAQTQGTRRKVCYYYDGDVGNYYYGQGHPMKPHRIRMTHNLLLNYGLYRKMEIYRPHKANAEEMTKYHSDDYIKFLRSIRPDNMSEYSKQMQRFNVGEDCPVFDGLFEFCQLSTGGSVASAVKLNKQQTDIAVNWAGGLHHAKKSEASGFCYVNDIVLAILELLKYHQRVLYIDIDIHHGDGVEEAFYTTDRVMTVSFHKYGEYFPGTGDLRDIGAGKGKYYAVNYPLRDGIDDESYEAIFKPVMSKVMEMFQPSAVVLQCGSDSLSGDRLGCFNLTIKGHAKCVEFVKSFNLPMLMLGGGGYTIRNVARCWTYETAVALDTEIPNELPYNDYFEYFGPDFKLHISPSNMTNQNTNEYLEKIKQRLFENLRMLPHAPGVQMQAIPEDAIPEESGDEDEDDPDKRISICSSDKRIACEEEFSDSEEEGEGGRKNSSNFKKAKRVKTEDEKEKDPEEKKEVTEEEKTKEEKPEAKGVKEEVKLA

Compound	IC50 (HeLa cells)	IC50 (HDAC1)	IC50 at 24 h [1]	decrease in the value of cisplatin IC50 (HeLa cell line)	inhibition at 100 µM (PA-1 cells; Homo sapiens, vs. control, read-out: inhibition of glycolytic reserve (ECAR))	glycolytic capacity (maximum ECAR after oligomycin injection) (PA-1 cells; p < 0.0001 vs. control)	reduction of glycolysis (ECAR) (PA-1 cells; vs. control)	fold decrease in the IC50 of cisplatin (HeLa/CDDP cells)	IC50 at 24 h (in vitro)	melting point
CC1(C)C2CC=C(CNC(=O)/C=C/c3ccc(C(=O)NO)cc3)[C@H]1C2 [18b, 4-((E)-3-((((1S)-6,6-Dimethylbicyclo[3.1.1]hept-2-en-2-yl)methyl)amino)-3-oxoprop-1-en-1-yl)-N-hydroxybenzamide]	43.6 ± 1.02 µM	7.96 ± 0.28 µM	38.9 ± 1.24 µM	–	–	–	–	–	–	–
CC1(C)C2CC=C(CCNC(=O)/C=C/c3ccc(C(=O)NO)cc3)[C@@H]1C2 [18c, 4-((E)-3-((2-((1R)-6,6-Dimethylbicyclo[3.1.1]hept-2-en-2-yl)ethyl)amino)-3-oxoprop-1-en-1-yl)-N-hydroxybenzamide]	33.8 ± 1.19 µM	4.45 ± 0.3 µM	34 ± 3.04 µM	34.50%	86%	significantly lower	26.6%	approximately 2.02 fold	–	–
CC(/C=C/C(=O)NO)=C\[C@@H](C)C(=O)c1ccc(N(C)C)cc1 [Trichostatin A, reference compound]	0.38 ± 0.02 µM	–	0.22 ± 0.01 µM	–	–	–	–	–	–	–
CC1(C)C2CC=C(CNC(=O)c3ccc(/C=C/C(=O)NO)cc3)[C@H]1C2 [21b, N-(((1S)-6,6-Dimethylbicyclo[3.1.1]hept-2-en-2-yl)methyl)-4-((E)-3-(hydroxyamino)-3-oxoprop-1-en-1-yl)benzamide]	42.8 ± 1.28 µM	8.2 ± 0.49 µM	–	–	–	–	–	–	37.2 ± 1.89 µM	–
CC1(C)C2CC=C(CNC(=O)c3ccc(/C=C/C(=O)NO)cc3)[C@@H]1C2 [21a, N-(((1R)-6,6-Dimethylbicyclo[3.1.1]hept-2-en-2-yl)methyl)-4-((E)-3-(hydroxyamino)-3-oxoprop-1-en-1-yl)benzamide]	18 ± 0.47 µM	7.23 ± 0.46 µM	–	–	–	–	–	–	21.2 ± 1.66 µM	74.6 °C
CC1(C)C2CC=C(CNC(=O)/C=C/c3ccc(C(=O)NO)cc3)[C@@H]1C2 [18a, 4-((E)-3-((((1R)-6,6-Dimethylbicyclo[3.1.1]hept-2-en-2-yl)methyl)amino)-3-oxoprop-1-en-1-yl)-N-hydroxybenzamide]	29.2 ± 1.06 µM	6.9 ± 0.03 µM	46.7 ± 2.93 µM	–	–	–	–	–	–	96.5 °C
CC1(C)C2CC=C(CCNC(=O)c3ccc(/C=C/C(=O)NO)cc3)[C@@H]1C2 [21c, N-(2-((1R)-6,6-Dimethylbicyclo [3.1.1]hept-2-en-2-yl)ethyl)-4-((E)-3-(hydroxyamino)-3-oxoprop-1-en-1-yl)benzamide]	19.1 ± 0.96 µM	5 ± 0.12 µM	33.9 ± 2.59 µM	–	–	–	–	–	–	132.5 to 132.6 °C
